Measured values reported in paper PMC7985297 (Communications Biology, 2021).
Several values for one entry are separate records, joined by “and”; a condition that tells them apart may be missing. Equal values may be shown once.

Experiments:
[1] = molecular target: T1, recombinant human Pin1 protein (Homo sapiens, UniProt Q13526); assay: Pin1 inhibition assay (fluorometric isomerase activity); assay type: biochemical; conditions: compounds 0–50 µM, 500 ng Pin1, Supplementary Fig. 2
T1 construct: purchased Abcam ab51230
Description: The effect of inhibitors on Pin1 isomerase activity was evaluated using a fluorometric Pin1 Assay Kit (AnaSpec, Fremont, California), according to the manufacturer’s protocol. […] Fluorescence intensity was measured with excitation wavelength at 490 nm and emission wavelength at 520 nm on an Infinite M1000 plate reader (Tecan, Männedorf, Switzerland) at 37 °C. Measurements were recorded every 5 min for up to 1 h.
Fluorescent polarization-based assay
the isomerase activity of Pin1. Each reaction contains 500 ng of
recombinant human Pin1 protein incubated with an inhibitor and a
fluorogenic substrate at 37°C. The uncatalyzed reaction represents
the intrinsic cis/trans isomerization of the substrate without Pin1
separate experiments with the correlation performed in duplicate
wells. RFU, relative fluorescent units.
(1 picture or pasted object on this page, not shown here)

[2] = test system: Pin1 and cell cycle proteins in LN95 cells; assay: Western blot of Pin1 and cell cycle proteins in LN95 cells; conditions: for CyclinA2 protein level (Fig. 6a) / CyclinB1 protein level (Fig. 6a) / CyclinD1 protein level (Fig. 6a) / Pin1 protein level (Fig. 6a) / p21 protein level (Fig. 6a) / p27 protein level (Fig. 6a): relative to 0 μM = 1, replicate experiments by date
Description: Data shown are the means ± s.e.m. from 3–4 independent experiments. Statistical significance was determined by ANOVA using the Dunnett’s multiple comparisons test. *P < 0.05, **P < 0.01, ***P < 0.001.
For western blot analyses, membranes were blocked with 5% non-fat milk in phosphate-buffered saline containing 0.1% Tween-20 (PBS-T) and then incubated overnight at 4 °C with primary antibody (1:200–5000) in PBS-T containing 5% non-fat milk or 2% BSA. After incubation with the primary antibody, the membrane was washed three times with TBS-T, incubated with a horseradish peroxidase-conjugated antibody secondary antibody (1:5000–10,000) for 1–2 h at room temperature, and washed three times with PBS-T and two more times with PBS before chemiluminescence was detected with ECL Prime Reagent (GE Healthcare Life Science, Mississauga, ON). Western blot images were captured using the ChemiDoc MP Imaging System (Bio-Rad Laboratories, Hercules, CA) and quantified using ImageJ software.

LN95-D3 xenografts = assay: Growth of LN95-D3 CRPC xenografts in castrated male NSG mice; assay type: in vivo; conditions: castrated mice, ATRA 5 mg 21-day release pellet, EPI-7170 30 mg/kg daily oral, relative to vehicle/placebo-control
[3] = test system: Pin1, Cyclin D1, Skp2 and AR in LN95-D3 tumors; assay: Western blot of harvested LN95-D3 xenograft tumors (Pin1, Cyclin D1, Skp2, AR); assay type: in vivo, mice; conditions: LN95-D3 tumors at end of study
Description: Scale bars represent 5 mm (f) western blot analysis showing the expression of Pin1, Cyclin D1, Skp2, and AR from representative tumors. Quantification of the data is shown for g Pin1 and h Skp2, where the error bars represent the mean ± s.e.m.
All experiments involving animals conform to the relevant regulatory and ethical standards and were approved by the University of British Columbia Animal Care Committee (A18-0077). Metacam (1 mg/kg, 0.05 mL/10 g of body weight) was administered subcutaneously prior to any surgery. Animals were anesthetized with isoflurane and euthanized by CO2. Six–eight-week-old male (NOD-scid IL2Rgamma^null) mice were maintained in the Animal Care Facility at the British Columbia Cancer Research Centre. Mice were castrated 2 weeks before they were subcutaneously inoculated in the right flank with two million LN95-D3 cells in a 1:1 volume of matrigel (Corning Discovery Labware, Corning, NY). […] Tumors were excised 1 day after the last dose and prepared for western blot analysis and immunohistochemistry.

full-length AR = molecular target: T2, full-length AR (Homo sapiens, UniProt P10275, T878A); assay: PSA(6.1 kb)-luciferase AR-driven reporter assay in LNCaP cells; assay type: cell-based; conditions: for PSA(6.1 kb)-luciferase activity normalized to fold-induction by R1881 (=100): without or with ATRA 5uM; for fractional response (Fig. 5h): monotherapy or with 5 µM ATRA
T2 construct: Transcriptional activity of full-length AR was assessed in LNCaP cells; endogenous in cells; host or cells: LNCaP
T2 sequence (P10275 1-920 T878A): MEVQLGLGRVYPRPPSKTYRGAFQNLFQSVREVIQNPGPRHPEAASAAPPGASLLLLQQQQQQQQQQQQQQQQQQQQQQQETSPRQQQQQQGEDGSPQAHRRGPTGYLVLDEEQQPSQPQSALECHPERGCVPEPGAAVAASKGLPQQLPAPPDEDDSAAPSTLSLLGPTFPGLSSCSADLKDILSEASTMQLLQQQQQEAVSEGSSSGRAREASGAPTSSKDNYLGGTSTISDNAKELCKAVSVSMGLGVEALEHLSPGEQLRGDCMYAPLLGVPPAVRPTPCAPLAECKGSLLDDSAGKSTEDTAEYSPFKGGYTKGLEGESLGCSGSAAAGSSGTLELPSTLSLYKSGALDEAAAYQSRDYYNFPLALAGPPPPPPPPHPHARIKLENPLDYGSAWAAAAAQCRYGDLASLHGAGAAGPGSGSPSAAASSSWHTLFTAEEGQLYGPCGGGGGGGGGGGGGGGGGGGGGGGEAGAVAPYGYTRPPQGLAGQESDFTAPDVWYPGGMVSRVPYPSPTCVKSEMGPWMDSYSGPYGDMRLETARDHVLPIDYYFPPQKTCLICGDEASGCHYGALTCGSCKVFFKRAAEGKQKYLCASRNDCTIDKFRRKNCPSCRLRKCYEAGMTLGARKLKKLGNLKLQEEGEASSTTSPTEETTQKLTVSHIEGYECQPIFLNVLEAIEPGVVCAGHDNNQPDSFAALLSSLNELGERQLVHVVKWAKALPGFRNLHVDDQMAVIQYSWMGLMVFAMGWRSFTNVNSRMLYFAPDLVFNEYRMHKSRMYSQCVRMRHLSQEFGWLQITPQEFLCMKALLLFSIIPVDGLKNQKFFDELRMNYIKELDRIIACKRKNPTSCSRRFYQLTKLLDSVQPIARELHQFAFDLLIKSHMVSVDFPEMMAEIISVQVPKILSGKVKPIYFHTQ

[4] = test system: Ki-67, PSA and AR in LN95-D3 xenografts; assay: Immunohistochemistry of LN95-D3 xenografts (Ki-67, PSA, AR); assay type: in vivo, mice
Excerpt: Fig. 8 Immunohistochemistry of LN95-D3 xenografts. a Representative images showing the histomorphology and expression of Ki-67, PSA, and AR from harvested tumors. Scale bars represent 100 µm. Statistical analysis for b the percentage of Ki-67-positive tumor cells and for the expression of c PSA and d AR. Error bars represent the mean ± s.d.
Sections were cut from formalin-fixed, paraffin-embedded tumor tissue at a thickness of 5 µm, deparaffinized in xylene, and then rehydrated in alcohols and distilled water. Endogenous peroxidase was blocked by incubating with a 3% hydrogen peroxide solution for 5 min. […] PSA was detected using a monoclonal mouse anti-human PSA antibody concentrate (ER-PR8; Dako). A negative control without the primary antibody was included for each sample on the same slide. Antigen was detected with 3,3-diaminobenzidine (DAB) and hematoxylin was used for counterstaining. Images were captured on an Axio Imager M2 microscope (Zeiss) at ×200 magnification. The percentage of Ki-67-positive cells was determined with ImageJ using the Cell Counter plugin. At least 1000 cells were scored from three images of representative tumors for each treatment group. The intensity of DAB staining for PSA was quantified by ImageJ using color deconvolution and measuring the mean gray value for the DAB image, where optical density = log(max intensity/mean intensity), and a max intensity of 255 for an 8-bit image.

LN95-D3 cells = assay: Cell cycle analysis by flow cytometry, LN95-D3 subline; assay type: cell-based, human; conditions: LN95-D3, absence of androgen, 48 h
[5] = test system: androgen-regulated genes (KLK3/PSA, TMPRSS2, NKX3.1, FKBP5); assay: Quantitative real-time PCR of androgen-regulated genes in LNCaP cells; assay type: cell-based, human; conditions: enzalutamide 5 μM, juglone 20 μM, R1881 1 nM, 48 hours

T1 sequence (Q13526 whole entry): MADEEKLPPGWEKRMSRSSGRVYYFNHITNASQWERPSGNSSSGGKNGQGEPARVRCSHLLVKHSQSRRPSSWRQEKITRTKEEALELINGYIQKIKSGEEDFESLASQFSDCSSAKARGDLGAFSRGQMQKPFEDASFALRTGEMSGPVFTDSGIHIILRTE

## CC1=C(/C=C/C(C)=C/C=C/C(C)=C\C(=O)O)C(C)(C)CCC1 [13cisRA, 13-cis-retinoic acid]
[1]
  effect on isomerase activity of Pin1: did not inhibit the isomerase activity of Pin1
[2]; 1 μM
  CyclinA2 protein level (Fig. 6a): 1.4 and 0.72 and 1.11
  CyclinB1 protein level (Fig. 6a): 1.01 and 0.65 and 1.18
  CyclinD1 protein level (Fig. 6a): 0.66 and 0.89 and 1.34 and 0.47
  Pin1 protein level (Fig. 6a): 1.03 and 1.11 and 1.06 and 0.77
  p21 protein level (Fig. 6a): 1.11 and 0.58 and 0.74
  p27 protein level (Fig. 6a): 1.11 and 0.36 and 0.65
[2]; 5 μM
  CyclinA2 protein level (Fig. 6a): 1.68 and 0.83 and 0.8
  CyclinB1 protein level (Fig. 6a): 1.11 and 0.76 and 0.82
  CyclinD1 protein level (Fig. 6a): 0.7 and 1.29 and 1.73 and 0.85
  Pin1 protein level (Fig. 6a): 0.96 and 1.44 (2×) and 0.77
  p21 protein level (Fig. 6a): 0.92 and 0.24 and 0.67
  p27 protein level (Fig. 6a): 0.91 and 0.32 and 0.6
[2]; 10 μM
  CyclinA2 protein level (Fig. 6a): 1.29 and 0.49 and 1.45
  CyclinB1 protein level (Fig. 6a): 1.06 and 0.77 and 1.15
  CyclinD1 protein level (Fig. 6a): 0.54 and 1.01 and 0.27 and 0.84
  Pin1 protein level (Fig. 6a): 0.95 and 0.71 and 1.33 and 1.23
  p21 protein level (Fig. 6a): 0.89 and 0.39 and 1.12
  p27 protein level (Fig. 6a): 1.06 and 0.44 and 1.1
[2]; LN95, 0–10 µM
  effect on cellular Pin1 protein levels: did not impact the cellular levels of Pin1

## CC(C)(c1ccc(OC[C@H](O)CNS(C)(=O)=O)cc1)c1cc(Cl)c(OC[C@H](O)CCl)c(Cl)c1 [EPI-7170]
LN95-D3 xenografts
  tumor growth after 21 days of treatment: significantly reduced
[3]
  tumor levels of Skp2: reduced
full-length AR; 4 µM of EPI-7170
  inhibition of reporter activity at highest concentration: ~ 98%
full-length AR; ATRA 5 μM, Bliss independence model, highest concentrations excluded
  mean combination index (CI) with ATRA, PSA(6.1 kb)-luciferase: 0.91
full-length AR; EPI-7170 0.2 μM
  PSA(6.1 kb)-luciferase activity normalized to fold-induction by R1881 (=100): 77.0788 and 79.4022 and 93.7923 and 73.47
full-length AR; EPI-7170 0.5 μM
  PSA(6.1 kb)-luciferase activity normalized to fold-induction by R1881 (=100): 56.3224 and 79.2412 and 61.2392 and 64.29
full-length AR; EPI-7170 2 μM
  fractional response (Fig. 5h): 0.8636 and 0.6689 and 0.7916 and 0.8858
full-length AR; EPI-7170 4 μM
  fractional response (Fig. 5h): 0.9949 and 0.9737 and 0.993 and 0.9732
full-length AR; LNCaP, androgen-induced (R1881), 24 h, without ATRA, read-out: IC50 for PSA(6.1 kb) luciferase, monotherapy
  IC50: 740 ± 1120 nM
[4]; LN95-D3 xenografts
  effect on number of Ki-67-positive tumor cells: decreased the number of Ki-67-positive tumor cells in xenografts
  levels of AR protein in xenografts (IHC): similar
[4]; LN95-D3 xenografts, ATRA 5 mg pellet, EPI-7170 30 mg/kg/d, listed as EPI placebo
  expression of AR, DAB staining (Fig. 8d): 0.086 and 0.114 and 0.139 and 0.128 and 0.109 and 0.1 and 0.132 and 0.137
[4]; LN95-D3 xenografts, ATRA 5 mg pellet, EPI-7170 30 mg/kg/d, one value per tumor, listed as EPI placebo
  percentage of Ki-67-positive tumor cells (Fig. 8b): 19.68% and 14.7% and 15.02%
[4]; compared to the control
  effect on PSA expression in xenografts (IHC): decreased

## CNC(=O)c1ccc(N2C(=S)N(c3ccc(C#N)c(C(F)(F)F)c3)C(=O)C2(C)C)cc1F [enzalutamide]
LN95-D3 cells
  effect on cell cycle distribution: had no effect on the cell cycle distribution
[5]
  effect on androgen-induced FKBP5 transcript: efficiently blocked
